Values after ≈ are worked out from the molar mass of the structure shown. Where two headings read alike, the source gives them in different places.
Key:
[1] = system: HIV-1 (IIIB); test: microbe, parasite or virus in culture; assay type: cell-based; conditions: for HIV-1 % Protection: protection of CEM cells against virus-induced cytopathicity at the concentration in the previous column; for EC50: Human immunodeficiency virus 1, IIIB, CCRF-CEM, read-out: EC50 (ug/ml) HIV-1
How it was run: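 Human T-lymphoblast CEM cells at roughly 300,000 cells per ml were infected with about 100 CCID50 of HIV-1 (IIIB). Then 100 μl of the infected suspension went into 200 μl microtiter wells holding 100 μl of 5-fold serial compound dilutions. Inhibition of syncytium formation was scored microscopically on day four post infection, and protection against virus-induced cytopathicity was recorded.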

[2] = system: HIV-2 (ROD); test: Inhibition of HIV-2 syncytium formation in CEM cells; assay type: cell-based; conditions: for EC50 (ug/ml) HIV-2: CEM cells, syncytium formation, day four post infection; for HIV-2 % Protection: protection of CEM cells against virus-induced cytopathicity at the concentration in the previous column; for EC50: Human immunodeficiency virus 2, CCRF-CEM, read-out: EC50 (ug/ml) HIV-2
How it was run: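 Human T-lymphoblast CEM cells, suspended at roughly 300,000 cells per ml of culture medium, were infected with about 100 CCID50 of HIV-2 (ROD). Aliquots of 100 μl of infected cells were placed in 200 μl microtiter wells holding 100 μl of serial 5-fold compound dilutions, and syncytium formation was scored microscopically four days after infection.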

[3] = system: Davis strain CMV; test: Reduction of CMV-induced cytopathicity in HEL cells; assay type: cell-based, human cytomegalovirus (HCMV); conditions: for Antiviral % Inhibition Davis strain CMV / Antiviral EC50 (ug/ml) Davis strain CMV: HEL cells; for Antiviral % Inhibition Davis strain CMV: estimate of percent protection at the concentration in the previous column; for Antiviral EC50 (ug/ml) Davis strain CMV: virus-induced cytopathicity after seven days; for EC50: Human betaherpesvirus 5, HEL, 168 h, read-out: Antiviral EC50 (ug/ml) Davis strain CMV
How it was run: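 Confluent HEL cells were infected with 100 PFU/well CMV for 1–2 h, then washed and kept in MEM with 2% FCS and test compound. EC50 is the concentration cutting virus-induced cytopathicity by 50% versus untreated control at day 7. Where cytotoxicity interfered, percent protection at the stated concentration is given.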

[4] = CEM cells, syncytium formation, day four post infection

Row | Structure (SMILES) | EC50 (ug/ml) HIV-1 [1, 4] | HIV-1 % Protection [1] | EC50 (ug/ml) HIV-2 [2] | Antiviral % Inhibition Davis strain CMV [3] | Antiviral EC50 (ug/ml) Davis strain CMV [3] | HIV-2 % Protection [2] | EC50 [1] | EC50 [2] | EC50 [3] | EC50 [1, 4]
1 | Cc1cc[n+]([O-])c([S+]([O-])Cc2ccc(Cl)cc2)c1 (stereo not drawn) [Compound 128] | ≧4 ug/ml | 37.5% | 7.0 µg/mL (≈ 24.8 µM) | 40.0% | >20 µg/mL | – | – | – | – | –
2 | Cc1cc[n+]([O-])c(S(=O)(=O)Cc2ccc(Cl)cc2)c1 [Compound 129] | >14 µg/mL | – | 11.0 µg/mL (≈ 36.9 µM) | 20.0% | >5 µg/mL | – | – | – | – | –
3 | [O-][n+]1cccc(Cl)c1SCc1ccccc1 [Compound 132] | 2.40 µg/mL (≈ 9.53 µM) | – | >20.00 µg/mL | 0.0% | >50 µg/mL | 0.0% | – | – | – | –
4 | Cc1ccc(C)c(CSc2c(Cl)ccc[n+]2[O-])c1 [Compound 133, 3-Chloro-2-[[(2,5-dimethylphenyl)methyl]thio]pyridine 1-oxide] | – | – | – | – | – | 0.0% | 0.14 µg/mL (≈ 0.5 µM) | > 20 µg/mL | 25 µg/mL (≈ 89.4 µM) | –
5 | COc1ccc(CSc2cc(CC(C)C)cc[n+]2[O-])cc1 [Compound 134] | >20 µg/mL | 0.0% | >100.0 µg/mL | – | 50.0 µg/mL | 0.0% | – | – | – | –
6 | COc1ccc(CS(=O)(=O)c2cc(C(C)(C)C)cc[n+]2[O-])cc1 [Compound 135] | >20 µg/mL | 0.0% | >20.00 µg/mL | – | 12.5 µg/mL | 0.0% | – | – | – | –
7 | [O-][n+]1cccc(Cl)c1[S+]([O-])Cc1ccccc1 (stereo not drawn) [Compound 136] | 1.50 µg/mL (≈ 5.6 µM) | – | >4.0 µg/mL | – | 4.7 µg/mL | 0.0% | – | – | – | –
8 | Cc1ccc[n+]([O-])c1SCc1c(Cl)cccc1Cl [Compound 137] | >20 µg/mL | 0.0% | >20.00 µg/mL | – | 28.0 µg/mL | 0.0% | – | – | – | –
9 | Cc1ccc[n+]([O-])c1[S+]([O-])Cc1c(Cl)cccc1Cl (stereo not drawn) [Compound 138] | >100 µg/mL | 0.0% | >100.0 µg/mL | 20.0% | >50 µg/mL | 0.0% | – | – | – | –
10 | Cc1ccc[n+]([O-])c1S(=O)(=O)Cc1c(Cl)cccc1Cl [Compound 139] | >20 µg/mL | 0.0% | >20.00 µg/mL | – | 43.0 µg/mL | 0.0% | – | – | – | –
11 | Oc1cccnc1SCc1ccccc1 [Compound 140, 2-[(Phenylmethyl)thio]-3-pyridinol] | – | – | – | – | – | – | – | 12 µg/mL (≈ 55.2 µM) | 12 µg/mL (≈ 55.2 µM) | 2 µg/mL (≈ 9.2 µM)
12 | Cc1cccc(CSc2cccc[n+]2C)c1.[Cl-] [Compound 142] | >4 µg/mL | 0.0% | >4 µg/mL | – | 3.4 µg/mL | 0.0% | – | – | – | –
13 | O=S(=O)(Cc1ccccc1)c1ccccn1 [Compound 143] | 30.00 µg/mL (≈ 129 µM) | – | 50.0 µg/mL (≈ 214 µM) | 0.0% | >50 µg/mL | – | – | – | – | –

— patent US7064139B2, “Method for treating retroviral infections” (Uniroyal Chemical Company, Inc., priority 2001, dated 2006)
